In US20030229053A1, “Compounds and methods for the treatment or prevention of flavivirus infections” (Shire BioChem Inc., priority 2001, published 2003):

The compounds below were run against recombinant HCV NS5B (Hepatitis C virus genotype 1b, UniProt P26663) (assay: biochemical). Settings: flashplate, polyrA/biotinylated-oligo dT, 100 nM NS5B, 2 hrs at room temperature; read-out: RNA pol Assay 2 IC50 (μm).
Description: In vitro HCV RdRp Flashplate Scintillation Proximity Assay (Strep-Flash Assay) Used to Evaluate Analogues:
In brief, a 400 ng/μl polyrA solution (Amersham Pharmacia Biotech) was mixed volume-to-volume with 5′ biotin-oligo dT12 at 20 pmol/μl. The template and primers were denatured at 95 C for 5 minutes then incubated at 37 C for 10 minutes. Annealed template-primers were subsequently diluted in a Tris-HCl containing buffer and allowed to bind to streptavidin-coated flashplates overnight.

Sequence of recombinant HCV NS5B (P26663 2420-3010 limits assumed): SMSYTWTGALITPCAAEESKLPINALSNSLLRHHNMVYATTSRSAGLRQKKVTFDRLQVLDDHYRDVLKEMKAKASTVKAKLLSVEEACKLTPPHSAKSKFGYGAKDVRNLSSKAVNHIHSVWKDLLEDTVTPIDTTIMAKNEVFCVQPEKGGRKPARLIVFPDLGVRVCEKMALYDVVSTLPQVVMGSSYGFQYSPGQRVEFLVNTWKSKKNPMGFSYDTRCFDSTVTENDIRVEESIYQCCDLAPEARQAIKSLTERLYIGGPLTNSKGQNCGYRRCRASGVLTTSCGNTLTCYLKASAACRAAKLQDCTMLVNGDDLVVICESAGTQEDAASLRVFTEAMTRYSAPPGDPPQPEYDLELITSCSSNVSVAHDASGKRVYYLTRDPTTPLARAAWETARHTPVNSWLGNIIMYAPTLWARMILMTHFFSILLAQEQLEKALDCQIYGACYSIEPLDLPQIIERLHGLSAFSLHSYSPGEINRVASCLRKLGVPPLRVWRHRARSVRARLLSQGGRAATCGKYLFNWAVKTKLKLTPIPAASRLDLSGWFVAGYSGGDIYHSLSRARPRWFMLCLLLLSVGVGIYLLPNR

| Structure (SMILES) | IC50 [µM] |
| --- | --- |
| O=C(O)[C@H](Cc1ccccc1)N(C[C@H]1CCCN1)C(=O)c1ccc(Cl)cc1Cl (stereo in doubt) [compound #168, d-2-[(2,4-Dichloro-benzoyl)-pyrrolidin-2-ylmethyl-amino]-3-phenyl-propionic acid] | 5 to 20 |
| CN(C(=O)c1ccc(Cl)cc1Cl)[C@H](Cc1ccc(Br)s1)C(=O)O (stereo in doubt) [compound #169, 3-(5-Bromo-thiophen-2-yl)-2-[(2,4-dichloro-benzoyl)-methyl-amino]-propionic acid] | < 5 |
| CN(C(=O)c1ccc(Cl)cc1Cl)[C@H](Cc1ccc(-c2cc3ccccc3o2)cc1)C(=O)O [Compound #29, 3-(4-Benzofuran-2-yl-phenyl)-2-[(2,4-dichloro-benzoyl)-methyl-amino]-propionic acid] | 5 to 20 |

The next lines start with the values.

| IC50 [µM] | Structure (SMILES) |
| --- | --- |
| 5 to 20 | CC(c1cccc(C#N)c1)N(C(=O)c1ccc(Cl)cc1Cl)[C@@H](Cc1ccccc1)C(=O)O (stereo in doubt) [Compound #205, 2-[[1-(3-CYANO-PHENYL)-ETHYL]-(2,4-DICHLORO-BENZOYL)-AMINO]-3PHENYL-PROPIONIC ACID] |
| < 5 | O=C(O)C(Cc1ccccc1)N(Cc1cc(Cl)cc(Cl)c1)C(=O)c1ccc(Cl)cc1Cl (stereo in doubt) [compound #142, (2s)-2-[(2,4-Dichloro-benzoyl)-(3,5-dichloro-benzyl)-amino]-3-phenyl-propionic acid] |
| < 5 | O=C(O)C(Cc1ccccc1)N(Cc1ccsc1)C(=O)c1ccc(Cl)cc1Cl (stereo in doubt) [compound #143, (2s)-2-[(2,4-Dichloro-benzoyl)-thiophen-3-ylmethyl-amino]-3-phenyl-propionic acid] |
| < 5 | O=C(O)[C@H](Cc1ccccc1)N(Cc1cccc([N+](=O)[O-])c1)C(=O)c1ccc(Cl)cc1Cl [Compound #53, (2S)-2-[(2,4-Dichloro-benzoyl)-(3-nitro-benzyl)-amino]-3-phenyl-propionic acid] |
| < 5 | COC(=O)c1cccc(CN(C(=O)c2ccc(Cl)cc2Cl)[C@@H](Cc2ccccc2)C(=O)O)c1 [Compound #117, 3-{[(1-Carboxy-2-phenyl-ethyl)-(2,4-dichloro-benzoyl)-amino]-methyl}-benzoic acid methyl ester] |

Each compound was assayed against HCV NS5B RNA-dependent RNA polymerase (Hepatitis C virus genotype 1b, UniProt P26663) (assay: In vitro RNA-dependent RNA polymerase assay (Assay 1), polyA/oligo dT, TCA precipitation). Settings: polyA/oligo dT template/primer, 200 ng NS5B, 2 h at 22° C.; read-out: RNA pol Assay 1 IC50 (μm).
Sequence of HCV NS5B RNA-dependent RNA polymerase (P26663 2420-3010 limits assumed): as above
Format: biochemical
Outline: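 Purified NS5B (200 ng) on annealed polyA/oligo dT15 in 20 mM Tris-HCl pH 7.5, 50 mM NaCl, 5 mM MgCl2, 1 mM DTT, 15 µM cold UTP plus [32P]-UTP, 2 h at 22°C. Product TCA-precipitated, filtered onto glass-fibre and counted by liquid scintillation.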

| Structure (SMILES) | IC50 [µM] |
| --- | --- |
| O=C(O)[C@H](Cc1ccccc1)N(CC#Cc1cc2ccccc2o1)C(=O)c1ccc(Cl)cc1Cl [compound #113, (2s)-2-[(3-Benzofuran-2-yl-prop-2-ynyl)-(2,4-dichloro-benzoyl)-amino]-3-phenyl-propionic acid] | < 5 |
| O=C(O)[C@H](Cc1ccccc1)N(C(=O)c1ccc(Cl)cc1Cl)c1ccc(-c2cc3ccccc3o2)cc1 [compound #114, (2s)-2-[(4-Benzofuran-2-yl-phenyl)-(2,4-dichloro-benzoyl)-amino]-3-phenyl-propionic acid] | < 5 |
| CC(C)=CCN(C(=O)c1ccc(Cl)cc1Cl)[C@@H](Cc1ccccc1)C(=O)O [compound #115, (2s)-2-[(2,4-Dichloro-benzoyl)-(3-methyl-but-2-enyl)-amino]-3-phenyl-propionic acid] | 5 to 20 |
| C=C(Br)CN(C(=O)c1ccc(Cl)cc1Cl)C(Cc1ccccc1)C(=O)O (centres unmarked) [compound #116, 2-[(2-Bromo-allyl)-(2,4-dichloro-benzoyl)-amino]-3-phenyl-propionic acid] | 5 to 20 |
| O=C(O)[C@H](Cc1ccccc1)N(Cc1ccc(-c2ccccc2C(F)(F)F)o1)C(=O)c1ccc(Cl)cc1Cl [compound #120, (2s)-2-{(2,4-Dichloro-benzoyl)-[5-(2-trifluoromethyl-phenyl)-furan-2-ylmethyl]-amino}-3-phenyl-propionic acid] | < 5 |
| O=C(O)[C@H](Cc1ccccc1)N(Cc1sc(Br)cc1Br)C(=O)c1ccc(Cl)cc1I [compound #124, (2s)-2-[(4-Chloro-2-iodo-benzoyl)-(3,5-dibromo-thiophen-2-ylmethyl)-amino]-3-phenyl-propionic acid] | < 5 |
| O=C(O)[C@H](Cc1ccccc1)N(Cc1ccc(-c2ccc(Cl)s2)o1)C(=O)c1ccc(Cl)cc1Cl [compound #126, (2s)-2-[[5-(5-Chloro-thiophen-2-yl)-furan-2-ylmethyl]-(2,4-dichloro-benzoyl)-amino]-3-phenyl-propionic acid] | < 5 |
| O=C(O)[C@H](Cc1ccccc1)N(Cc1ccc(-c2ccc(Cl)s2)s1)C(=O)c1ccc(Cl)cc1Cl [compound #128, (2s)-2-[(5′-Chloro-[2,2′]bithiophenyl-5-ylmethyl)-(2,4-dichloro-benzoyl)-amino]-3-phenyl-propionic acid] | < 5 |
| O=C(O)[C@H](Cc1ccccc1)N(Cc1cc(-c2cc(F)cc(F)c2)cs1)C(=O)c1ccc(Cl)cc1Cl [compound #129, (2s)-2-{(2,4-Dichloro-benzoyl)-[4-(3,5-difluoro-phenyl)-thiophen-2-ylmethyl]-amino}-3-phenyl-propionic acid] | < 5 |
| O=C(O)[C@H](Cc1ccccc1)N(Cc1ccc(-c2cccc(C(F)(F)F)c2)o1)C(=O)c1ccc(Cl)cc1I [compound #131, (2s)-2-{(4-Chloro-2-iodo-benzoyl)-[5-(3-trifluoromethyl-phenyl)-furan-2-ylmethyl]-amino}-3-phenyl-propionic acid] | < 5 |
| O=C(O)[C@H](Cc1ccccc1)N(Cc1ccc(-c2ccncc2)o1)C(=O)c1ccc(Cl)cc1Cl [compound #137, (2s)-2-[(2,4-Dichloro-benzoyl)-(5-pyridin-4-yl-furan-2-ylmethyl)-amino]-3-phenyl-propionic acid] | < 5 |

Now from value to compound:

| IC50 [µM] | Structure (SMILES) |
| --- | --- |
| > 20 | CCCN(C(=O)c1ccc(Cl)cc1Cl)[C@@H](Cc1ccccc1)C(=O)O [compound #112, (2s)-2-[(2,4-Dichloro-benzoyl)-propyl-amino]-3-phenyl-propionic acid] |
| < 5 | CCOC(=O)c1ccccc1-c1ccc(CN(C(=O)c2ccc(Cl)cc2Cl)[C@@H](Cc2ccccc2)C(=O)O)s1 [compound #121, (2s)-2-(5-{[(1s-1-Carboxy-2-phenyl-ethyl)-(2,4-dichloro-benzoyl)-amino]-methyl}-thiophen-2-yl)-benzoic acid ethyl ester] |
| < 5 | CCOC(=O)c1cccc(-c2ccc(CN(C(=O)c3ccc(Cl)cc3Cl)[C@@H](Cc3ccccc3)C(=O)O)s2)c1 [compound #122, 3-(5-{[(1s-1-Carboxy-2-phenyl-ethyl)-(2,4-dichloro-benzoyl)-amino]-methyl}-thiophen-2-yl)-benzoic acid ethyl ester] |
| < 5 | O=C(O)[C@H](Cc1ccccc1)N(Cc1ccc(-c2cccc(Cl)c2)o1)C(=O)c1ccc(Cl)cc1Cl [compound #123, (2s)-2-[[5-(3-Chloro-phenyl)-furan-2-ylmethyl]-(2,4-dichloro-benzoyl)-amino]-3-phenyl-propionic acid] |
| < 5 | O=C(O)c1cccc(-c2ccc(CN(C(=O)c3ccc(Cl)cc3Cl)[C@@H](Cc3ccccc3)C(=O)O)s2)c1 [compound #125, (2s)-3-(5-{[(1-Carboxy-2-phenyl-ethyl)-(2,4-dichloro-benzoyl)-amino]-methyl}-thiophen-2-yl)-benzoic acid] |
| < 5 | O=C(O)[C@H](Cc1ccccc1)N(Cc1ccc(-c2cccs2)s1)C(=O)c1ccc(Cl)cc1Cl [compound #127, (2s)-2-[[2,2′]Bithiophenyl-5-ylmethyl-(2,4-dichloro-benzoyl)-amino]-3-phenyl-propionic acid] |
| < 5 | O=C(O)[C@H](Cc1ccccc1)N(Cc1cc(-c2cccc(F)c2)cs1)C(=O)c1ccc(Cl)cc1Cl [compound #130, (2s)-2-{(2,4-Dichloro-benzoyl)-[4-(3-fluoro-phenyl)-thiophen-2-ylmethyl]-amino}-3-phenyl-propionic acid] |
| < 5 | O=C(O)[C@H](Cc1ccccc1)N(Cc1cc(-c2ccc(Cl)s2)cs1)C(=O)c1ccc(Cl)cc1Cl [compound #133, (2s)-2-[(5-Chloro-[2,3′]bithiophenyl-5′-ylmethyl)-(2,4-dichloro-benzoyl)-amino]-3-phenyl-propionic acid] |
| < 5 | COc1ccc(-c2ccc(CN(C(=O)c3ccc(Cl)cc3Cl)[C@@H](Cc3ccccc3)C(=O)O)o2)cc1 [compound #134, (2s)-2-{(2,4-Dichloro-benzoyl)-[5-(4-methoxy-phenyl)-furan-2-ylmethyl]-amino}-3-phenyl-propionic acid] |
| < 5 | COc1ccc(-c2ccc(CN(C(=O)c3ccc(Cl)cc3Cl)[C@@H](Cc3ccccc3)C(=O)O)s2)cc1 [compound #135, (2s)-2-{(2,4-Dichloro-benzoyl)-[5-(4-methoxy-phenyl)-thiophen-2-ylmethyl]-amino}-3-phenyl-propionic acid] |
| < 5 | COc1ccc(-c2csc(CN(C(=O)c3ccc(Cl)cc3Cl)[C@@H](Cc3ccccc3)C(=O)O)c2)cc1 [compound #136, (2s)-2-{(2,4-Dichloro-benzoyl)-[4-(4-methoxy-phenyl)-thiophen-2-ylmethyl]-amino}-3-phenyl-propionic acid] |
| < 5 | O=C(O)[C@H](Cc1ccccc1)N(Cc1ccc(-c2ccncc2)s1)C(=O)c1ccc(Cl)cc1Cl [compound #138, (2s)-2-[(2,4-Dichloro-benzoyl)-(5-pyridin-4-yl-thiophen-2-ylmethyl)-amino]-3-phenyl-propionic acid] |
| < 5 | O=C(O)[C@H](Cc1ccccc1)N(Cc1cc(-c2ccncc2)cs1)C(=O)c1ccc(Cl)cc1Cl [compound #139, (2s)-2-[(2,4-Dichloro-benzoyl)-(4-pyridin-4-yl-thiophen-2-ylmethyl)-amino]-3-phenyl-propionic acid] |
